Measurements published in patent US5925618A, “Peptides useful as somatostatin antagonists” (American Cyanamid Company, priority 1998, dated 1999).
Values belong to the molecule of their own block, whether it stands above or below them. Square brackets hold non-standard residues; d marks the D form. Peptide text beside a SMILES is read from it.

Tests used:
[1] = molecular target: T1, SSTR2 (Rattus norvegicus, UniProt P30680); assay: Competitive binding of 125I labeled S-14 to membranes of cells expressing SSTR2; details: 125I labeled S-14, membranes
T1 construct: expressed in transfected cells
T1 sequence (P30680 whole entry): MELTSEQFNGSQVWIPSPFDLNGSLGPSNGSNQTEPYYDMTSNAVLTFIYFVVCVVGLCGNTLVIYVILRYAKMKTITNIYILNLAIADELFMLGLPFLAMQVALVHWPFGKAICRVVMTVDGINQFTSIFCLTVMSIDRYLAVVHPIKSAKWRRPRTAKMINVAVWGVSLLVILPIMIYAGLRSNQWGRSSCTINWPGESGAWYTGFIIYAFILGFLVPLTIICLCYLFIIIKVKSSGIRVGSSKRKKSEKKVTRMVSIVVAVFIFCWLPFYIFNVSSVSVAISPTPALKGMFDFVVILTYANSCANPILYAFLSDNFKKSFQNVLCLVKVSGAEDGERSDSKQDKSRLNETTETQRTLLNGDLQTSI
Method: Membrane preparation. Tissue culture cell lines expressing transfected CDNA clones of SSTR2, and SSTR5 are used as a source of plasma membranes which specifically bind ^125 I labeled S-14 (Amersham, Arlington Heights, Ill.). Cells are removed from culture dishes by incubation at 4° C. for 5 minutes in PBS containing 1 mM EDTA, spun down (2,000 rpm, 5') and resuspended in 15 mL homogenization buffer (1 mM sodium bicarbonate pH 7.2, 1 mM EDTA, 1 mM EGTA and the following protease inhibitors: leupeptin and aprotenin at 5 μg/mL and benzamidine and bacitracin at 100 μg/mL). Cells are given 20 strokes with a Dounce homogenizer on ice and spun at 2000 rpm for 10 minutes. Membranes are isolated from the supernatant by centrifugation at 17,000 rpm for 30 minutes. The membrane pellet is washed once in 15 mL homogenization buffer and once in storage buffer (25 mM Tris pH 7.4 containing protease inhibitors). Each wash is followed by centrifugation at 17,000 rpm for 30 minutes. The membrane pellet is resuspended in storage buffer, measured for protein concentration (BioRad, Calif.) and stored at -80° C.
Binding assay. All reagents for the binding assay are prepared in binding buffer (50 mM Hepes pH 7.4, 2 mM EGTA, 5 mM MgCl2 and protease inhibitors). Membranes are thawed on ice and diluted to […] protein/50 μL binding buffer. ^125 I labeled S-14 (Amersham, Arlington Heights, Ill.) is diluted to 80-100,000 cpm/50 μL in binding buffer. Competitors, either test peptides or standards, are prepared at 4× final concentrations in binding buffer, as are wheat germ agglutinin (WGA)-linked PVC beads that contain solid scintillant (SPA beads, Amersham, Arlington Heights, Ill.). The binding assay is initiated by mixing 50 μL each of membranes, radiolabelled S-14, competitors and SPA beads in each well of a 96-well tray. The assay is incubated by shaking for 10-30 minutes at room temperature and then placing at 4° C. overnight. Bound radioligand is determined by counting in a Microbeta Liquid Scintillation counter (Wallac, Gaithersburg, Md.). Binding data is plotted and IC50 and Ki values are calculated for test compounds using Prism software (Graphpad Software Inc., San Diego, Calif.) and are shown in Table V. Binding is expressed as Ki, μM.

[2] = molecular target: T2, S. cerevisiae (yeast) cells expressing SRIF receptors (Rattus norvegicus, UniProt P30680); assay: Yeast bioassay for SRIF antagonist activity (LY364 cells growing in response to SRIF, zone of growth inhibition); type: cell-based; details: Sample type 4th iteration; 10 μL of 5 mg/mL on disk, SRIF 10 nM, read after 3 days
T2 construct: expressed in transfected cells; host or cells: S. cerevisiae strain LY364
T2 sequence (P30680 whole entry): as above
Excerpt: SRIF antagonist assay using S. cerevisiae (yeast) cells expressing SRIF receptors that grow in response to SRIF
Agar plates containing LY364 cells that are growing in the presence of added SRIF are the basis for a sensitive SRIF antagonist assay, whereby zones of growth inhibition result from the addition of SRIF antagonists to the surface of the agar plate (see L. A. Price, et al., Molecular and Cellular Biology, 15, 6188-6195, 1995, incorporated herein by reference).
In this assay, LY364 cells are grown overnight in 2 mL of synthetic complete(SC) medium (3.4 g/L YNB without amino acids and ammonium sulfate, 10 g/L ammonium sulfate and 1.4 g/L CSM-ura-trp) with glucose (2%) and without uracil and tryptophan. These cells are washed and cultured for 4 to 8 hours in 5 mL of SC medium with lactate (3%) and without uracil and tryptophan, and finally grown overnight in 5 mL of SC medium with galactose (2%) and without uracil and tryptophan. Molten (50° C.) SC agar medium with galactose (2%) and without uracil, tryptophan and histidine is adjusted to pH 6.8 with KOH, mixed with 2×10^4 cells/mL and SRIF (S-14, 10 nM) and poured into square (20×20 cm) petri dishes. Sterile filter disks are placed on the surface of the agar, and saturated with 10 μL of water or DMSO containing 5 mg/mL test peptides. After three days, the plates display a uniform cloudy background of LY264 cells growing in response to the added SRIF. […] This zone is quantified by measuring its diameter (mm), which varies according to the potency of the SRIF antagonist. Those peptides or mixtures of peptides displaying the largest zones of inhibition are further characterized.
Values are compared among samples in the same experiment, as the degree of yeast growth varies somewhat from assay to assay. For the first five sample types, in which progressively less complex mixtures of peptides are found, this assay is the primary determining factor in choosing which samples form the basis of subsequent syntheses.
Plates are read after 3 days. Samples shown in Table I in bold type are chosen for further synthesis. In Table I, all amino acids are D-amino acids and dashes represent undefined amino acid residues.

[3] = test system: Male Sprague-Dawley rats; assay: Serum growth hormone levels in anaesthetized rats given GRF with and without peptide 1; type: in vivo, rat
Method: Evaluation in anaesthetized rats. Male Sprague-Dawley rats are anaesthetized with Sagatal and fitted so as to allow efficient intravenous treatment with control and test compounds as well as frequent blood sampling. Blood samples are tested for growth hormone (GH) levels by radioimmunoassay. Thirty minutes after the initiation of blood sampling, rats are given 5 μg, 25 μg or 50 μg of peptide 1.
Peptide 1 is tested in combination with growth hormone releasing factor (GRF), to investigate whether said peptide may be mimicking the action of GRF. Anaesthetized rats are given GRF (1 μg) alone and in combination with peptide 1 (50 μg).

Molecule: CC[C@@H](C)[C@H]1NC(=O)[C@@H](Cc2ccccc2)NC(=O)[C@@H](Cc2c[nH]cn2)NC(=O)[C@@H](Cc2ccccc2)NC(=O)[C@@H](Cc2c[nH]c3ccccc23)NC(=O)[C@@H](CCCNC(=N)N)NC1=O [#STR6##] (cyclo([dH][dF][dI][dR][dW][dF]))
- Ki [1]: 140 nM

Molecule: CC[C@@H](C)[C@@H](NC(=O)[C@@H](Cc1ccccc1)NC(=O)[C@@H](Cc1c[nH]cn1)NC(C)=O)C(=O)N[C@H](CCCNC(=N)N)C(=O)N[C@H](Cc1c[nH]c2ccccc12)C(=O)N[C@@H](C(N)=O)[C@H](C)O [His Phe Ile Arg Trp Thr] (Ac-[dH][dF][dI][dR][dW][dT]-NH2)
- Inhibition Zone [2]: 14 mm

Molecule: CC[C@@H](C)[C@@H](NC(=O)[C@@H](Cc1ccccc1)NC(=O)[C@@H](Cc1c[nH]cn1)NC(C)=O)C(=O)N[C@H](CCCNC(=N)N)C(=O)N[C@H](Cc1c[nH]c2ccccc12)C(=O)N[C@H](Cc1c[nH]c2ccccc12)C(N)=O [His Phe Ile Arg Trp Trp] (Ac-[dH][dF][dI][dR][dW][dW]-NH2)
- Inhibition Zone [2]: 16 mm

Molecule: CC[C@@H](C)[C@@H](NC(=O)[C@@H](Cc1ccccc1)NC(=O)[C@@H](Cc1c[nH]cn1)NC(C)=O)C(=O)N[C@H](CCCNC(=N)N)C(=O)N[C@H](Cc1c[nH]c2ccccc12)C(=O)N[C@H](Cc1ccc(O)cc1)C(N)=O [His Phe Ile Arg Trp Tyr] (Ac-[dH][dF][dI][dR][dW][dY]-NH2)
- Inhibition Zone [2]: 16 mm

Molecule: CC[C@@H](C)[C@@H](NC(=O)[C@@H](Cc1ccccc1)NC(=O)[C@@H](Cc1c[nH]cn1)NC(=O)[C@@H](Cc1ccccc1)NC(=O)[C@@H](Cc1c[nH]c2ccccc12)NC(C)=O)C(=O)N[C@H](CCCNC(=N)N)C(N)=O [Peptide 32, w-f-h-f-i-r] (Ac-[dW][dF][dH][dF][dI][dR]-NH2)
- Ki [1]: 37200 nM

Molecule: growth hormone releasing factor [GRF]
- SGH ([3]; GRF 1 μg alone or with peptide 1 50 μg at 30 min, sample 35 min): 67.1 ng/mL
- SGH ([3]; GRF 1 μg alone or with peptide 1 50 μg at 30 min, sample 40 min): 103.5 ng/mL
- SGH ([3]; GRF 1 μg alone or with peptide 1 50 μg at 30 min, sample 45 min): 53.1 ng/mL
- SGH ([3]; GRF 1 μg alone or with peptide 1 50 μg, 30 min (time of dosing)): 8.4 ng/mL

The next lines start with the values.

- Ki [1]: 970 nM
Molecule: CC[C@@H](C)[C@@H](NC(=O)[C@@H](Cc1c[nH]c2ccccc12)NC(=O)[C@@H](Cc1c[nH]cn1)NC(C)=O)C(=O)N[C@H](CCCNC(=N)N)C(=O)N[C@H](Cc1ccccc1)C(=O)N[C@H](Cc1ccccc1)C(N)=O [Peptide 29, h-w-i-r-f-f] (Ac-[dH][dW][dI][dR][dF][dF]-NH2)

- Ki [1]: 2800 nM
Molecule: CC[C@@H](C)[C@@H](NC(=O)[C@@H](CCCNC(=N)N)NC(=O)[C@@H](Cc1c[nH]c2ccccc12)NC(=O)[C@@H](Cc1ccccc1)NC(=O)[C@@H](Cc1c[nH]cn1)NC(C)=O)C(=O)N[C@H](Cc1ccccc1)C(N)=O [Peptide 30, h-f-w-r-i-f] (Ac-[dH][dF][dW][dR][dI][dF]-NH2)

- Ki [1]: 2500 nM
Molecule: CC[C@@H](C)[C@@H](NC(=O)[C@@H](CCCNC(=N)N)NC(=O)[C@@H](Cc1ccccc1)NC(=O)[C@@H](Cc1c[nH]cn1)NC(C)=O)C(=O)N[C@H](Cc1c[nH]c2ccccc12)C(=O)N[C@H](Cc1ccccc1)C(N)=O [Peptide 31, h-f-r-i-w-f] (Ac-[dH][dF][dR][dI][dW][dF]-NH2)

- Ki [1]: 2800 nM
Molecule: CC[C@@H](C)[C@@H](NC(C)=O)C(=O)N[C@H](CCCNC(=N)N)C(=O)N[C@H](Cc1c[nH]c2ccccc12)C(=O)N[C@H](Cc1ccccc1)C(=O)N[C@H](Cc1c[nH]cn1)C(=O)N[C@H](Cc1ccccc1)C(N)=O [Peptide 33, i-r-w-f-h-f] (Ac-[dI][dR][dW][dF][dH][dF]-NH2)
